Marks after values point to notes of the source that are not given here.
Tests used:
Format in all cases: in vivo
[1] = test system: chickens; test: 2002 poultry feed test: TBARS content of cooked ground chicken breasts; settings: 300 ppm in diet
Text: (§1) Applicants also assessed the effects of antioxidant supplementation on meat quality in an experiment in which meat from chickens fed one of four dietary treatments was compared. On Jul. 25, 2002, day-old chicks were obtained from a commercial company. The birds were housed in a brooder until Aug. 11, 2002. On Aug. 11, forty-eight birds were randomly allocated to one of four pens (twelve birds per pen). Birds in each pen were offered ad libitum access to one of four treatment diets: control, 300 ppm AT, 300 ppm GT or 150 ppm MT. The MT premix contained a commercially available MT supplement (7.5% alpha-, 12.3% gamma- and 3.0% delta-tocotrienol and 7.2% alpha-tocopherol) mixed with ground corn as the carrier. The total MT premix (ground corn plus MT supplement) represented 2.5% w/w of the finished MT supplemented feed.
(§2) On Sep. 13, 2002 (seven weeks of age) the birds were harvested, identified and frozen at −20C. The birds were stored frozen at −20C for 136-159 days post slaughter. On days 136, 156, 157, 158 and 159 (where available) two birds per dietary treatment were thawed in cold water. Meat was removed from the breasts (pectoralis major muscles) and thighs. Breast meat from each chicken was ground through a 3 mm disc in a Krups Butcher Shop 150W Professional Power Meat Grinder. Thigh meat from two chickens was combined (for days 156, 157, 158 and 159; day 136 thigh meat was kept separate for each bird) and ground in a similar manner. Patties were made (10 g for breast; 60 g for thighs) using a 100×15 mm Petri dish as a mold.
(§3) Raw ground chicken breast and thigh patties were cooked in a pre-warmed George Foreman grill for five minutes per breast patty and four minutes per thigh patty. Cooked patties were allowed to cool under refrigeration and then quartered (day 136) or halved (days 156, 157, 158 and 159). Each quarter or half was stored at 2.2C in zip lock baggies for a designated period of time. One quarter was used per sampling period. Sampling periods were 0 hours, 4 hours, 26 hours and 48 hours. Thiobarbituric acid reacting substances (TBARS) analyses was performed according to Ahn et al., and the results are shown in the following two tables.

[2] = test system: chickens; test: 2002 poultry feed test: TBARS content of cooked ground chicken thighs; settings: 300 ppm in diet
Text: as §1, §2, §3

[3] = test system: chickens; test: 2002 poultry feed test: TBARS content of raw ground chicken thighs; settings: 300 ppm in diet
Text: as §1, §2
(§4) Patties were quartered and each quarter was stored at 2.2C for a designated period of time. One quarter was used per sampling period. Sampling periods for the raw ground meat were day 0, day 3, day 7 and day 10. Thiobarbituric acid reacting substances (TBARS) analyses was performed on the raw ground chicken breasts and thighs according to the procedure of Ahn, D. U., D. G. Olson, C. Jo, X. Chen, C. Wu, and J. I. Lee, “Effect of Muscle Type, Packaging, and Irradiation on Lipid Oxidation, Volatile Production and Color in Raw Pork Patties”, Meat Sci. 49:27-39 (1998).

[4] = test system: swine; test: 2002 swine feed test: 24 hour raw pork loin quality; set-up: Marbling / Fat Firmness / Color Score: scale not given here
Text: Applicants conducted a second swine feeding trial to further determine the effects on meat quality of supplementation of a swine diet with alpha-tocopherol (AT), gamma-tocopherol (GT) or mixed tocotrienols (MT). Seventy-two barrows (˜75 lbs.) were transported to the Pioneer Livestock Nutrition Center (PLNC) and randomly placed into individual pens with water and feed provided ad libitum. The pigs received a common diet for seven days. On the eighth day the pigs were weighed individually and a uniform group of sixty pigs with an average body weight of about 75 pounds was selected. The pigs were randomly assigned one of five dietary treatments with 12 pigs per treatment. The feeding trial was initiated on Mar. 12, 2002 and ended on Jun. 19, 2002.
The pigs were fed a corn-soybean meal diet formulated to provide adequate levels of all nutrients. In addition, one of five dietary treatments was assigned to each group: control, 300 ppm AT, 450 ppm GT, 150 ppm MT, and 300 ppm MT. To each diet a corn oil premix and a ground corn premix were added with the corn oil premix as a carrier for the supplemental tocopherols and the ground corn premix as the carrier for the MT. The MT supplement was obtained commercially from Fuji Chemical Industries (U.S.A.) Inc. of Robbinsville, N.J., and contained 7.5% alpha-, 12.3% gamma- and 3.0% delta-tocotrienol, as well as 7.2% alpha-tocopherol.
The pigs were harvested in June 2002 when they had reached an average weight of about 245 pounds. Following a twelve-hour feed withdrawal, the pigs were transported to a commercial processing facility. At the commercial processing facility, individual hot carcass weight, back fat depth and loin depth were measured and recorded on the day of slaughter. Loin pH, loin color value (Minolta L*), Marbling and fat firmness were recorded 24 hours post mortem.

[5] = test system: chickens; test: 2002 poultry feed test: TBARS content of raw ground chicken breasts; settings: 300 ppm in diet
Text: as §1, §2, §4

[6] = test system: swine; test: 2002 swine feed test: 24 hour raw pork loin quality

Structure (SMILES)	TBARS content ([1]; 0 hours at 2.2C)	TBARS content ([1]; 4 hours at 2.2C)	TBARS content ([1]; 26 hours at 2.2C)	TBARS content ([1]; 48 hours at 2.2C)	TBARS content ([2]; 0 hours at 2.2C)	TBARS content ([2]; 4 hours at 2.2C)	TBARS content ([2]; 26 hours at 2.2C)	TBARS content ([2]; 48 hours at 2.2C)	TBARS content ([3]; Day 0 at 2.2C)	TBARS content ([3]; Day 3 at 2.2C)	TBARS content ([3]; Day 7 at 2.2C)	TBARS content ([3]; Day 10 at 2.2C)	TBARS content ([5]; Day 0 at 2.2C)	TBARS content ([5]; Day 3 at 2.2C)	TBARS content ([5]; Day 7 at 2.2C)	TBARS content ([5]; Day 10 at 2.2C)	further results
Cc1c(C)c2c(c(C)c1O)CC[C@@](C)(CCC[C@H](C)CCC[C@H](C)CCCC(C)C)O2 [AT, alpha-tocopherol]	0.3067 mg Malonaldehyde/kg sample	0.4354^b mg Malonaldehyde/kg sample	0.3366^b mg Malonaldehyde/kg sample	0.4433^b mg Malonaldehyde/kg sample	0.4568^b mg Malonaldehyde/kg sample	0.8954^d mg Malonaldehyde/kg sample	0.8968^d mg Malonaldehyde/kg sample	1.1669^d mg Malonaldehyde/kg sample	0.3438 mg Malonaldehyde/kg sample	0.1810 mg Malonaldehyde/kg sample	0.2448 mg Malonaldehyde/kg sample	0.4482 mg Malonaldehyde/kg sample	0.4569 mg Malonaldehyde/kg sample	0.1214 mg Malonaldehyde/kg sample	0.1243 mg Malonaldehyde/kg sample	0.1151^b mg Malonaldehyde/kg sample	Color Score ([4]; 300 ppm in diet): 3.2; Fat Firmness ([4]; 300 ppm in diet): 2.3; Hunter L* ([4]; 300 ppm in diet): 48.89; Marbling ([4]; 300 ppm in diet): 2.1; PH, hour 22 ([6]; 300 ppm in diet): 5.86
Cc1c(O)cc2c(c1C)O[C@](C)(CCC[C@H](C)CCC[C@H](C)CCCC(C)C)CC2 [GT, gamma-tocopherol]	0.3809 mg Malonaldehyde/kg sample	0.3443^b mg Malonaldehyde/kg sample	0.4559^b mg Malonaldehyde/kg sample	0.6120^b mg Malonaldehyde/kg sample	0.4839^b mg Malonaldehyde/kg sample	0.6715^d mg Malonaldehyde/kg sample	1.2515^d mg Malonaldehyde/kg sample	1.6312^d mg Malonaldehyde/kg sample	0.2493 mg Malonaldehyde/kg sample	0.2010 mg Malonaldehyde/kg sample	0.1626 mg Malonaldehyde/kg sample	0.3557 mg Malonaldehyde/kg sample	0.3022 mg Malonaldehyde/kg sample	0.1926 mg Malonaldehyde/kg sample	0.0860 mg Malonaldehyde/kg sample	0.1428^b mg Malonaldehyde/kg sample	Color Score ([4]; 450 ppm in diet): 3.1; Fat Firmness ([4]; 450 ppm in diet): 2.0; Hunter L* ([4]; 450 ppm in diet): 48.81; Marbling ([4]; 450 ppm in diet): 1.9; PH, hour 22 ([6]; 450 ppm in diet): 5.76

Reference: patent publication US20040266862A1, “Method of improving animal tissue quality by supplementing the animal diet with mixed tocotrienols” (priority 2003, published 2004)
